{
  "source": "paper PMC8372460",
  "about": "(European Journal of Medicinal Chemistry, 2021)",
  "key": {"[1]": {"details": "concentrations ranging from 100 μg/mL to 10 ng/mL; cited from earlier work"}, "[2]": {"molecular_target": "SARS-CoV-2 M^pro (Severe acute respiratory syndrome coronavirus 2, UniProt P0DTD1)", "assay_type": "biochemical"}, "[3]": {"tested_on": "normal peripheral blood mononuclear cells", "details": "cited from earlier work"}, "[4]": {"tested_on": "Vesicular Stomatitis Virus", "details": "cited from earlier work"}, "[5]": {"tested_on": "human normal fibroblast HFF-1 cells", "test": "In vitro cytotoxicity evaluation, MTT assay", "assay_type": "cell-based", "details": "read-out: IC50 values towards HFF-1 cells, 48 h"}, "[6]": {"tested_on": "latent HIV-1", "details": "bcl-2-transduced primary CD4+ T cell model; cited from earlier work"}, "[7]": {"details": "patients with hypoprothrombinemia, doses from 1 to 200 mg; cited from earlier work"}, "[8]": {"details": "Balb/C mice, 100 mg/kg, p.o., 10 times in 20 days"}, "[9]": {"tested_on": "Vero E6 cells", "details": "under tested concentrations"}},
  "note": "Read-outs that look alike come from different tables or passages of the source.",
  "data": [
    {"smiles": "CC(C)=CC[C@@H](O)C1=CC(=O)c2c(O)ccc(O)c2C1=O", "note": "[Compound 1, shikonin, reference compound]", "values": [
      {"measurement": "cytotoxic effects in vitro", "setting": "[1]", "result": "significant cytotoxic effects"},
      {"measurement": "inhibitory effect towards M^pro (in words)", "setting": "[2]; 10 μM", "result": "moderate inhibitory effects"}
    ]},
    {"smiles": "O=C1C=CC(=O)c2c(O)cccc21", "note": "[Compound 2, juglone]", "values": [
      {"measurement": "IC50, cytotoxicity against normal peripheral blood mononuclear cells", "setting": "[3]", "result": "more than 5 μg/mL"},
      {"measurement": "activity against Vesicular Stomatitis Virus", "setting": "[4]", "result": "active"},
      {"measurement": "inhibitory effect towards M^pro (in words)", "setting": "[2]; 1 μM", "result": "completely inactivated the main protease"},
      {"measurement": "inhibitory effect towards M^pro (in words)", "setting": "[2]; 10 μM", "result": "completely loss of the hydrolytic efficacy"},
      {"measurement": "IC50", "setting": "[5]", "result": "< 5", "unit": "µM"},
      {"measurement": "reactivation of latent HIV-1", "setting": "[6]", "result": "potently reactivate latent HIV-1"}
    ]},
    {"smiles": "CC1=CC(=O)c2ccccc2C1=O", "note": "[Compound 3, 2-Methyl-1,4-naphthoquinone, reference compound]", "values": [
      {"measurement": "toxic effects in patients", "setting": "[7]", "result": "no toxic effects were observed"},
      {"measurement": "inhibitory effect towards M^pro (in words)", "setting": "[2]; 10 μM", "result": "inactive"}
    ]},
    {"smiles": "O=C1C=C(O)C(=O)c2ccccc21", "note": "[Compound 7, 2-hydroxy-1,4-naphthoquione]", "values": [
      {"measurement": "inhibitory effect towards M^pro (in words)", "setting": "[2]; 10 μM", "result": "did not exhibit any detectable inhibition"}
    ]},
    {"smiles": "COc1cccc2c1C(=O)C(C(C)=O)=CC2=O", "note": "[Compound 15, 2-acetyl-8-methoxy-1,4-naphthoquinone]", "values": [
      {"measurement": "animal deaths", "setting": "[8]", "result": "no animal deaths"},
      {"measurement": "body weight change compared with control animals", "setting": "[8]", "result": "minor body weight loss"},
      {"measurement": "toxicity symptoms (reduced activity, hypothermia, body shivering)", "setting": "[8]; every other day", "result": "did not show any obvious toxicity symptoms"},
      {"measurement": "toxicity towards host Vero E6 cells (in words)", "setting": "[9]", "result": "non-toxic"}
    ]},
    {"smiles": "Cc1cc(O)c2c(c1)C(=O)C=CC2=O", "note": "[Compound 16, 7-Methyl juglone]", "values": [
      {"measurement": "Mpro inhibition rate at different conc. (%) 0.1 μM", "setting": "[2]", "result": 21.7, "unit": "%"},
      {"measurement": "Mpro inhibition rate at different conc. (%) 1 μM", "setting": "[2]", "result": 99.6, "unit": "%"},
      {"measurement": "inhibitory effect towards M^pro (in words)", "setting": "[2]", "result": "completely loss of the hydrolytic efficacy"},
      {"measurement": "IC50", "setting": "[5]", "result": "< 5", "unit": "µM"}
    ]},
    {"smiles": "CC1=CC(=O)c2c(O)cccc2C1=O", "note": "[Compound 17, Plumbagin]", "values": [
      {"measurement": "inhibitory effect towards M^pro (in words)", "setting": "[2]; 10 μM", "result": "inactive"}
    ]},
    {"smiles": "COc1cc(C)cc2c1C(=O)C=CC2=O", "note": "[Compound 22, 7-methyl juglone methyl ether]", "values": [
      {"measurement": "inhibitory effect towards M^pro (in words)", "setting": "[2]", "result": "did not show any inhibitory effects"}
    ]}
  ]
}
